According to patent publication US4183930A, “Amino derivatives of pyrazolo [1,5-a]s-triazine, and their therapeutic applications” (Aron S.A., priority 1978, dated 1980):
Read-outs that look alike come from different tables or passages of the source.

Key:
[1] = tested on: bronchospasm induced by acetylcholine, serotonine and histamine; test: Prevention of bronchospasm in anesthetized guinea-pigs (Konzett and Rossler); format: in vivo, guinea-pig; conditions: Cavia porcellus, iv, spasm by acetylcholine (10-20 γ/kg i.v.), serotonine (5 γ/kg i.v.) and histamine (10 γ/kg i.v.), read-out: ED100 (dosage providing 100% inhibition of the spasm)
[2] = tested on: isolated trachea of guinea-pigs; test: Dilatation of the isolated trachea of guinea-pigs (Castillo & De Beer); design: species or system guinea-pig; conditions: 10 γ/ml, tensile load 500 mg; for % dilatation (tensile variation with respect to the activity of theophylline taken as 100%): relative to theophylline = 100%
Procedure: (a) Action on the isolated trachea of guinea-pigs The trachea is prepared according to the technique disclosed by Castillo & De Beer (J. Pharmacol. Exper. […] The organ is submitted to a tensile load of 500 mg.

in vivo = conditions: mouse
[3] = tested on: anaphylactic shock in mice; test: Protective effect against anaphylactic shock in mice; format: in vivo, mouse; conditions: 100 mg/kg i.p., 30 min prior to albumin; for Number of dead animals: dead/total; for responders at 100 mg/kg: Mus musculus, ip, 0.5 h, read-out: % surviving animals
Procedure: (a) Protective effect against anaphylactic shock in mice
The protective effect against anaphylactic shock was investigated according to the technique disclosed by Duhault and co-workers (Arzneim. Forschung, 1972, II, 1947). Four weeks after sensitization to bovine albumin, intravenous injection of 0.3 mg bovine albumin in mice causes a fatal anaphylactic shock within the 30 minutes which follow said injection.
The protective effect of compounds of the formula (I), on intraperitoneal administration, at a dosage of 100 mg/kg 30 minutes prior to albumin injection is illustrated in Table III.

mice [4] = conditions: mouse, in vivo
[5] = tested on: passive cutaneous anaphylaxis in rats; test: Protective effect against passive cutaneous anaphylaxis (PCA) in rats; format: in vivo; conditions: Rattus norvegicus, ip, 100 mg/kg i.p., 30 min prior to ovalbumin injection, read-out: % Protection (with respect to the controls)
Procedure: (b) Protective effect against passive cutaneous anaphylaxis in rats
The protective effect against passive cutaneous anaphylaxis (PCA) in rats were investigated according to the technique disclosed by Rosenthale and co-workers (J. Pharm. Exp. Therap. 1976, 197, 725-733). Antisera were prepared by sub-cutaneous injection of 1 mg/ml ovalbumin and by intraperitoneal injection of b 30×10^9 /ml Bacillus pertussis. The PCA reaction was visualized on intravenous injection of antigen (ovalbumin) and Evans Blue in rats which had been intradermally administered the antiserum (4 injections in the shaved back of each rat) 72 hours previously. The protective effect obtained on intraperitoneal administration of the compounds at a dosage of 100 mg/kg 30 minutes prior to ovalbumin injection is set forth in Table IV.
To determine the percent protection, the length of the longest diameter o
the spot and the length of the diameter perpendicular thereto are
measured. The product is expressed as mm^2.

humans = test: First clinical tests in humans; format: in vivo, human
Source text: The first clinical tests provided the following data:
(2) In clinical pharmacology, functional respiratory exploration determinations provided the same bronchodilator effect found in animals.

dogs = test: Chronic toxicity in dogs, 1 month; format: in vivo, dog; conditions: 20 and 160 mg/kg
rats = test: Chronic toxicity in rats, orally, 3 months; format: in vivo, rat; conditions: 3 months, 25, 100 and 300 mg/kg
mice [6] = test: Acute toxicity in mice; conditions: dosage 1000 mg/kg
[7] = Series 4 (controls 30% surviving)
[8] = Series 2 (controls 50% surviving)
[9] = Series 3 (controls 25% surviving)

C=CCNc1nc(N)nc2cc(C)nn12 [Example 7, 2-Amino-4-allylamino-7-methyl-pyrazolo[1,5-a]s.triazine]
ED100 [1]: 5 mg/kg
Tensile variation [2]: -180 mg
% dilatation (tensile variation with respect to the activity of theophylline taken as 100%) [2]: 200%
LD50 (in vivo; po): 1200 mg/kg
Number of dead animals ([3]; Series 4 (controls 14/20)): 2/20
responders at 100 mg/kg [3, 7]: 90%
Number of dead animals at the dosage indicated, i.v. (mice [4]): no
inhibition in vivo at 100 mg/kg [5]: 71%

Cc1cc2nc(N)nc(N)n2n1 [Example 2, 2,4-Diamino-7-methyl-pyrazolo[1,5-a]s.triazine]
ED100 [1]: 15 to 20 mg/kg
Tensile variation [2]: -100 mg
% dilatation (tensile variation with respect to the activity of theophylline taken as 100%) [2]: 111%
LD50 (in vivo; iv): 380 mg/kg
LD50 (in vivo; po): 900 mg/kg
Number of dead animals ([3]; Series 2 (controls 10/20)): 2/21
responders at 100 mg/kg [3, 8]: 90.5%
tolerance in humans (humans): good tolerance
inhibition in vivo at 100 mg/kg [5]: 56%
alteration of the biological constants / histological injury of the various organs (dogs): neither alteration of the biological constants nor histological injury of the various organs
alteration of the biological constants / histological injury of the various organs (rats): neither alteration of the biological constants nor histological injury of the various organs

Cc1cc2nc(N)nc(NC(C)C)n2n1 [Example 6, 2-amino-4-isopropylamino-7-methyl-pyrazolo[1,5-a]s.triazine methane sulfonate]
ED100 [1]: 5 mg/kg
Tensile variation [2]: -200 mg
% dilatation (tensile variation with respect to the activity of theophylline taken as 100%) [2]: 220%
Number of dead animals ([3]; Series 3 (controls 15/20)): 12/20
responders at 100 mg/kg [3, 9]: 40%
Number of dead animals at the dosage indicated, p.o. (mice [4]): one

Cn1c(=O)c2[nH]cnc2n(C)c1=O [Theophylline, reference compound]
ED100 [1]: 20 to 25 mg/kg
Tensile variation [2]: -90 mg
Number of dead animals ([3]; Series 2 (controls 10/20)): 4/20
responders at 100 mg/kg [3, 8]: 80%
inhibition in vivo at 100 mg/kg [5]: 72%

CNc1nc(NC)n2nc(C)cc2n1 [Example 5, 2,4-Bis-(methylamino)-7-methyl-pyrazolo[1,5-a]s.triazine]
ED100 [1]: 10 mg/kg
Tensile variation [2]: -207 mg
% dilatation (tensile variation with respect to the activity of theophylline taken as 100%) [2]: 230%
LD50 (in vivo; po): 300 mg/kg
inhibition in vivo at 100 mg/kg [5]: 83%

Cc1cc2nc(N)nc(NCC3CCCO3)n2n1 (centres unmarked) [Example 8, 2-Amino-4-tetrahydrofurfurylamino-7-methyl-pyrazolo[1,5-a]s.triazine]
Tensile variation [2]: -72 mg
% dilatation (tensile variation with respect to the activity of theophylline taken as 100%) [2]: 80%
Number of dead animals ([3]; Series 4 (controls 14/20)): 6/21
responders at 100 mg/kg [3, 7]: 71%
Number of dead animals at the dosage indicated, p.o. (mice [4]): two
inhibition in vivo at 100 mg/kg [5]: 54%

Cc1cc2nc(N)nc(NC(C)(C)C)n2n1 [Example 10]
Number of dead animals at the dosage indicated, p.o. (mice [6]): one
inhibition in vivo at 100 mg/kg [5]: 50%

Nc1nc(N)n2nccc2n1 [Example 1, 2,4-Diamino-pyrazolo[1,5-a]s.triazine]
ED100 [1]: 20 to 25 mg/kg
Tensile variation [2]: -60 mg
% dilatation (tensile variation with respect to the activity of theophylline taken as 100%) [2]: 67%
LD50 (in vivo; po): 1250 mg/kg
responders at 100 mg/kg ([3]; Series 1 (controls 20% surviving)): 50%
Number of dead animals ([3]; mice sensitized to bovine albumin, Series 1 (controls 16/20)): 10/20
tolerance in humans (humans): good tolerance
Number of dead animals at the dosage indicated, i.v. (mice [4]): no
inhibition in vivo at 100 mg/kg [5]: 42%
alteration of the biological constants / histological injury of the various organs (rats): neither alteration of the biological constants nor histological injury of the various organs

C=CCNc1nc(N)nc2ccnn12 [Example 11]
Number of dead animals at the dosage indicated, p.o. (mice [6]): one

CCc1nn2c(N)nc(N)nc2c1C [Example 3, 2,4-Diamino-7-ethyl-8-methyl-pyrazolo[1,5-a]s.triazine]
Tensile variation [2]: -100 mg
% dilatation (tensile variation with respect to the activity of theophylline taken as 100%) [2]: 111%
LD50 (in vivo; po): 200 mg/kg
Number of dead animals ([3]; Series 3 (controls 15/20)): 6/19
responders at 100 mg/kg [3, 9]: 68.5%
inhibition in vivo at 100 mg/kg [5]: 92%

CNc1nc(N)nc2cc(C)nn12 [Example 4, 2-Amino-4-methylamino-7-methyl-pyrazolo[1,5-a]s.triazine]
Tensile variation [2]: -153 mg
% dilatation (tensile variation with respect to the activity of theophylline taken as 100%) [2]: 170%
LD50 (in vivo; iv): 300 mg/kg
Number of dead animals ([3]; Series 3 (controls 15/20)): 9/20
responders at 100 mg/kg [3, 9]: 55%
tolerance in humans (humans): good tolerance
LD50 p.o. (mice [4]; po): 1000 mg/kg
inhibition in vivo at 100 mg/kg [5]: 92%
alteration of the biological constants / histological injury of the various organs (rats): neither alteration of the biological constants nor histological injury of the various organs

CCCNc1nc(N)nc2cc(C)nn12 [Example 9]
Number of dead animals at the dosage indicated, p.o. (mice [6]): one
inhibition in vivo at 100 mg/kg [5]: 69%
